According to patent publication US10941162B2, “Heterocyclic compounds and uses thereof” (Infinity Pharmaceuticals, Inc., priority 2014, dated 2021):

Key:
PI3K α = PI3K α (Homo sapiens (Human), UniProt P42336); experiment: PI3-Kinase in vitro IC50 assay, α isoform; format: biochemical
Source text: (§1) A PI3-Kinase HTRF® assay kit (cat No. 33-016) purchased from Millipore Corporation is used to screen compounds provided herein. This assay uses specific, high affinity binding of the GRP1 pleckstrin homology (PH) domain to PIP3, the product of a Class 1A or 1B PI3 Kinase acting on its physiological substrate PIP2. During the detection phase of the assay, a complex is generated between the GST-tagged PH domain and biotinylated short chain PIP3. The biotinylated PIP3 and the GST-tagged PH domain recruited fluorophores (Streptavidin-Allophycocyanin and Europium-labeled anti-GST respectively) to form the fluorescence resonance energy transfer (FRET) architecture, generating a stable time-resolved FRET signal. The FRET complex is disrupted in a competitive manner by non-biotinylated PIP3, a product formed in the PI3 Kinase assay.
(§2) PI3 Kinase α, β, γ or δ activity is assayed using the PI3 Kinase HTRF®, assay kit (catalogue No. 33-016) purchased from Millipore Corporation. Purified recombinant PI3Kα (catalogue No. 14-602-K), PI3Kβ (catalogue No. 14-603-K), PI3Kγ (catalogue No. 14-558-K), and PI3Kδ (catalogue No. 14-604-K) are obtained from Millipore Corporation. Purified recombinant PI3K enzyme is used to catalyze the phosphorylation of phosphatidylinositol 4,5-bisphosphate (PIP2 at 10 μM) to phosphatidylinositol 3,4,5-trisphosphate (PIP3) in the presence of 10 μM ATP. The assay is carried out in 384-well format and detected using a Perkin Elmer EnVision Xcite Multilabel Reader. Emission ratios are converted into percent inhibitions and imported into GraphPad Prism software. The concentration necessary to achieve inhibition of enzyme activity by 50% (IC50) is calculated using concentrations ranging from 20 μM to 0.1 nM (12-point curve), IC50 values are determined using a nonlinear regression model available in GraphPad Prism 5.
(§3) Promega ADP-Glo Max assay kit (Cat. No. V7002) can be utilized to determine IC50 values for α, β, δ and γ isoforms of human Class I PI3 kinases (Millipore). Samples of kinase (20 nM α or δ, 40 nM β or γ isoform) are incubated with compound for 15 minutes at room temperature in reaction buffer (15 mM HEPES pH 7.4, 20 mM NaCl, 1 mM EGTA, 0.02% Tween 20, 10 mM MgCl2, 0.2 mg/mL bovine-γ-globulins) followed by addition of ATP/diC8-PtdInsP mixture to give final concentrations of 3 mM ATP and 500 uM diC8-PtdInsP. Reactions are incubated at room temperature for 2 hours followed by addition of 25 uL of stop solution. After a 40-minute incubation at room temperature, 50 uL of Promega detection mix is added followed by incubation for 1 hour at room temperature. Plates are then read on Envision plate reader in luminescence mode. Data are converted to % inhibition using the following equation below:
(§4) [formula] where S is the sample luminescence, Pos is a positive control without added PI3K, Neg is the negative control without added compound. Data are then plotted as % inhibition vs compound concentration. Data fit to 4 parameter logistic equation to determine IC50 values: […]

PI3K γ = PI3K γ (Homo sapiens (Human), UniProt P48736); experiment: PI3-Kinase in vitro IC50 assay, γ isoform; format: biochemical; conditions: for IC50: in vitro; for PI3K δ/PI3K γ IC50 (selectivity): ratio of PI3K δ IC50 to PI3K γ IC50
Source text: as §1, §2, §3, §4

p110 γ = p110 γ (Mus musculus (Mouse), UniProt Q9JHG7); experiment: Raw264.7 p110 γ assay (PI3K-γ selective cellular assay, phospho-AKT); format: cell-based; conditions: for IC50: RAW264.7 cells stimulated with C5a, phospho-AKT; for RAJI δ/Raw264.7 γ IC50 (selectivity): ratio of RAJI p110 δ IC50 to Raw264.7 p110 γ IC50
Source text: A compound's ability in selectively inhibiting PI3K-γ can be assessed using RAW264.7 macrophages. Briefly, serum-starved RAW264.7 cells are stimulated with a known GPCR agonist C5a. See, e.g., Camps et al., Nature Medicine (2005) 11(9):936-943. Cells can be treated with test compounds prior to, simultaneously with, or subsequent to the stimulation by C5a. RAW 264.7 cells respond to the complement component fragment C5a through activation of the C5a receptor, and the C5a receptor activates macrophages and induces cell migration. Test compounds' ability to inhibit C5a-mediated AKT phosphorylation is indicative of selective inhibition of PI3K-γ. Thus, by monitoring the reduction of phospho-AKT in stimulated RAW 264.7 cells (using for example, phospho-AKT antibodies), a compound's potential efficacy in selectively inhibiting PI3Kγ can be assessed.
Certain compounds provided herein were tested in RAW 264.7 cell model using procedures as described above.

PI3K β = PI3K β (Homo sapiens, UniProt P42338); experiment: PI3-Kinase in vitro IC50 assay, β isoform; format: biochemical
Source text: A PI3-Kinase HTRF® assay kit (cat No. 33-016) purchased from Millipore Corporation is used to screen compounds provided herein. This assay uses specific, high affinity binding of the GRP1 pleckstrin homology (PH) domain to PIP3, the product of a Class 1A or 1B PI3 Kinase acting on its physiological substrate PIP2. During the detection phase of the assay, a complex is generated between the GST-tagged PH domain and biotinylated short chain PIP3. The biotinylated PIP3 and the GST-tagged PH domain recruited fluorophores (Streptavidin-Allophycocyanin and Europium-labeled anti-GST respectively) to form the fluorescence resonance energy transfer (FRET) architecture, generating a stable time-resolved FRET signal. The FRET complex is disrupted in a competitive manner by non-biotinylated PIP3, a product formed in the PI3 Kinase assay. PI3 Kinase α, β, γ or δ activity is assayed using the PI3 Kinase HTRF®, assay kit (catalogue No. 33-016) purchased from Millipore Corporation. Purified recombinant PI3Kα (catalogue No. 14-602-K), PI3Kβ (catalogue No. 14-603-K), PI3Kγ (catalogue No. 14-558-K), and PI3Kδ (catalogue No. 14-604-K) are obtained from Millipore Corporation. Purified recombinant PI3K enzyme is used to catalyze the phosphorylation of phosphatidylinositol 4,5-bisphosphate (PIP2 at 10 μM) to phosphatidylinositol 3,4,5-trisphosphate (PIP3) in the presence of 10 μM ATP. The assay is carried out in 384-well format and detected using a Perkin Elmer EnVision Xcite Multilabel Reader. Emission ratios are converted into percent inhibitions and imported into GraphPad Prism software. The concentration necessary to achieve inhibition of enzyme activity by 50% (IC50) is calculated using concentrations ranging from 20 μM to 0.1 nM (12-point curve), IC50 values are determined using a nonlinear regression model available in GraphPad Prism 5. Promega ADP-Glo Max assay kit (Cat. No. V7002) can be utilized to determine IC50 values for α, β, δ and γ isoforms of human Class I PI3 kinases (Millipore). Samples of kinase (20 nM α or δ, 40 nM β or γ isoform) are incubated with compound for 15 minutes at room temperature in reaction buffer (15 mM HEPES pH 7.4, 20 mM NaCl, 1 mM EGTA, 0.02% Tween 20, 10 mM MgCl2, 0.2 mg/mL bovine-γ-globulins) followed by addition of ATP/diC8-PtdInsP mixture to give final concentrations of 3 mM ATP and 500 uM diC8-PtdInsP. Reactions are incubated at room temperature for 2 hours followed by addition of 25 uL of stop solution. After a 40-minute incubation at room temperature, 50 uL of Promega detection mix is added followed by incubation for 1 hour at room temperature. Plates are then read on Envision plate reader in luminescence mode. Data are converted to % inhibition using the following equation below: [formula] where S is the sample luminescence, Pos is a positive control without added PI3K, Neg is the negative control without added compound. Data are then plotted as % inhibition vs compound concentration. Data fit to 4 parameter logistic equation to determine IC50 values: [formula]

p110 δ = p110 δ (Homo sapiens (Human), UniProt O00329); experiment: RAJI p110 δ assay (PI3K-δ selective cellular assay, phospho-AKT); format: cell-based; conditions: RAJI cells stimulated with anti-human IgM
Source text: A compound's ability in selectively inhibiting PI3K-δ can be assessed using RAJI cells, i.e., B lymphocyte cells derived from lymphoma patients. Briefly, serum-starved RAJI cells are stimulated with anti-human IgM, thereby causing signaling through the B-cell receptors, as described in, for example, He et al., Leukemia Research (2009) 33: 798-802. B-cell receptor signaling is important for the activation, differentiation, and survival of B cells and certain B-cell derived cancers. Reduction of phospho-AKT is indicative of compounds that may inhibit B-cell proliferation and function in certain diseases. By monitoring the reduction of phospho-AKT in stimulated RAJI cells (using for example, phospho-AKT antibodies), a compound's potential efficacy in selectively inhibiting PI3KS can be assessed.

PI3K δ = PI3K δ (Homo sapiens (Human), UniProt O00329); experiment: PI3-Kinase in vitro IC50 assay, δ isoform; format: biochemical
Source text: as §1, §2, §3, §4

PI3K δ, sequence (O00329 whole entry, canonical isoform): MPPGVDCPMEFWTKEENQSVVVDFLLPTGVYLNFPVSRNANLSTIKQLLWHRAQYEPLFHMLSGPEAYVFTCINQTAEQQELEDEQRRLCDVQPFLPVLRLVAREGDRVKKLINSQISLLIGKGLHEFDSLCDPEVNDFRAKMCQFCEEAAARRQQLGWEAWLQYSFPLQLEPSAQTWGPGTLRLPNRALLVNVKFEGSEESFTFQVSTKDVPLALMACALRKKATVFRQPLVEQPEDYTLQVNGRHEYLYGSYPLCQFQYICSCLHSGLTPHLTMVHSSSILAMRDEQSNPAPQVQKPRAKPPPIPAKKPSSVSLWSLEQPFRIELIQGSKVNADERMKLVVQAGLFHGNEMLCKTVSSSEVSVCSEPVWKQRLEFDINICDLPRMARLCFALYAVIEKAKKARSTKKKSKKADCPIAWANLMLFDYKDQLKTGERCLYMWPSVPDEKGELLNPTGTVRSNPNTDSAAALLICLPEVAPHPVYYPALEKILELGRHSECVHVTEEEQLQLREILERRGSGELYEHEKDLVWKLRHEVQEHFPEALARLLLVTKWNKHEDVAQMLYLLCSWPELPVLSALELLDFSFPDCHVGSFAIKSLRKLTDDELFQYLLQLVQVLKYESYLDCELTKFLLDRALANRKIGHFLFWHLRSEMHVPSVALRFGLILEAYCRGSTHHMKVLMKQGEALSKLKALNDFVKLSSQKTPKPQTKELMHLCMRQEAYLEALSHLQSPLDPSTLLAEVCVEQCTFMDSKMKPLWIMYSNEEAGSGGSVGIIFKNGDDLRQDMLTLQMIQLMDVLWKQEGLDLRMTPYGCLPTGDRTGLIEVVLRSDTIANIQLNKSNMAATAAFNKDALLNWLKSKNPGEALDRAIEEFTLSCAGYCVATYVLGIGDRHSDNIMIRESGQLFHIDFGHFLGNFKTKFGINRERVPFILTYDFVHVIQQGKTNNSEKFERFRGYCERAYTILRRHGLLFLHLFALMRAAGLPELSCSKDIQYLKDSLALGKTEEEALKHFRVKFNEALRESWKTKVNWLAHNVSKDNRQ
PI3K δ, sequence (P27986 whole entry partner, canonical isoform): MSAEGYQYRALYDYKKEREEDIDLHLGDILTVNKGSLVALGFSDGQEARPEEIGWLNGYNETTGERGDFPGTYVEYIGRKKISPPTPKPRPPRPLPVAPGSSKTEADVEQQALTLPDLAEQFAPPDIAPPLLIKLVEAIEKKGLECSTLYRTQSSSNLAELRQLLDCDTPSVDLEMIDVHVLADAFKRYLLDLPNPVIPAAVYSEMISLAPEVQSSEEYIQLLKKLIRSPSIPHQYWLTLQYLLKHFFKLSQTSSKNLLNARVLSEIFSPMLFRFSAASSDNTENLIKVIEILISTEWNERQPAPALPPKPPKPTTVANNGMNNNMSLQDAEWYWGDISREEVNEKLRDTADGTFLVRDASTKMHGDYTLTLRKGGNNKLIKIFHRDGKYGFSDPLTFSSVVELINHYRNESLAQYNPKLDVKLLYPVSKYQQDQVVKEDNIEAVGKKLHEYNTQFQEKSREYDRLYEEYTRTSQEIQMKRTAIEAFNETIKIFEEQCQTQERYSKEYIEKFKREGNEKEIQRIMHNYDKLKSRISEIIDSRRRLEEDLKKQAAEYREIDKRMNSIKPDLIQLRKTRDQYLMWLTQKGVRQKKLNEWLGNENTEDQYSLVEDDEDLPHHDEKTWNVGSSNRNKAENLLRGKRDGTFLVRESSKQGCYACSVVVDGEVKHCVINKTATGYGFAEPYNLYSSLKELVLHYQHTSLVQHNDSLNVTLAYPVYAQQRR
p110 δ, sequence (O00329 whole entry): as the sequence (O00329 whole entry, canonical isoform) above
p110 δ, sequence (P27986 whole entry partner): as the sequence (P27986 whole entry partner, canonical isoform) above
PI3K β, sequence (P42338 whole entry, looked up, the tested form may be a part, canonical isoform): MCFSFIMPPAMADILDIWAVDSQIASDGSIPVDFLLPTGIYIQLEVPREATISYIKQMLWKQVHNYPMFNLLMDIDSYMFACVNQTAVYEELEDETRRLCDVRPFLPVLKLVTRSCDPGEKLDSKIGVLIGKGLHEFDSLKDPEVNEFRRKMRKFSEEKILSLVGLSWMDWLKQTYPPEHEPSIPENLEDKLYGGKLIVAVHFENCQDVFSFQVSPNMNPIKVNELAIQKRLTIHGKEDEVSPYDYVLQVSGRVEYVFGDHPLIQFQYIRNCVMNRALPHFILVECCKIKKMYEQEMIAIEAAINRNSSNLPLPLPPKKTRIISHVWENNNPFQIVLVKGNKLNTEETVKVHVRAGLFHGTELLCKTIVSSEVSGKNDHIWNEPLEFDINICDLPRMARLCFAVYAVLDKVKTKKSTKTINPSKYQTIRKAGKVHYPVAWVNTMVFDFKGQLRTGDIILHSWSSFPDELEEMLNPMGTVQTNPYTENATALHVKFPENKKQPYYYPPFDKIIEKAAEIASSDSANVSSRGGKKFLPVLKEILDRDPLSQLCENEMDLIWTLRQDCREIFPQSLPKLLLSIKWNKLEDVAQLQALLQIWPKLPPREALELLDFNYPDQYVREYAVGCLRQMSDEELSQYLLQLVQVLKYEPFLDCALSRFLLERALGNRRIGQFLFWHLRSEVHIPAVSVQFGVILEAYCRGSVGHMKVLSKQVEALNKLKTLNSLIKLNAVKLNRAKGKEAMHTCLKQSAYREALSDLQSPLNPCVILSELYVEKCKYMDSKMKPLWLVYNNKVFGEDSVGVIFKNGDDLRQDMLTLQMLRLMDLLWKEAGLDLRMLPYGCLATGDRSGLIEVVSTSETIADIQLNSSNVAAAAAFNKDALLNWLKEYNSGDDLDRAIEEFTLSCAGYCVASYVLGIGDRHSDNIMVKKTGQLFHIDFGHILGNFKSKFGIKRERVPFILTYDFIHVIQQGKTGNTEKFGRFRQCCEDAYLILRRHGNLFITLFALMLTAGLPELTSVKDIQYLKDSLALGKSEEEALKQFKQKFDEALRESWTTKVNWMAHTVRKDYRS
p110 γ, sequence (Q9JHG7 whole entry, the tested form may be a part): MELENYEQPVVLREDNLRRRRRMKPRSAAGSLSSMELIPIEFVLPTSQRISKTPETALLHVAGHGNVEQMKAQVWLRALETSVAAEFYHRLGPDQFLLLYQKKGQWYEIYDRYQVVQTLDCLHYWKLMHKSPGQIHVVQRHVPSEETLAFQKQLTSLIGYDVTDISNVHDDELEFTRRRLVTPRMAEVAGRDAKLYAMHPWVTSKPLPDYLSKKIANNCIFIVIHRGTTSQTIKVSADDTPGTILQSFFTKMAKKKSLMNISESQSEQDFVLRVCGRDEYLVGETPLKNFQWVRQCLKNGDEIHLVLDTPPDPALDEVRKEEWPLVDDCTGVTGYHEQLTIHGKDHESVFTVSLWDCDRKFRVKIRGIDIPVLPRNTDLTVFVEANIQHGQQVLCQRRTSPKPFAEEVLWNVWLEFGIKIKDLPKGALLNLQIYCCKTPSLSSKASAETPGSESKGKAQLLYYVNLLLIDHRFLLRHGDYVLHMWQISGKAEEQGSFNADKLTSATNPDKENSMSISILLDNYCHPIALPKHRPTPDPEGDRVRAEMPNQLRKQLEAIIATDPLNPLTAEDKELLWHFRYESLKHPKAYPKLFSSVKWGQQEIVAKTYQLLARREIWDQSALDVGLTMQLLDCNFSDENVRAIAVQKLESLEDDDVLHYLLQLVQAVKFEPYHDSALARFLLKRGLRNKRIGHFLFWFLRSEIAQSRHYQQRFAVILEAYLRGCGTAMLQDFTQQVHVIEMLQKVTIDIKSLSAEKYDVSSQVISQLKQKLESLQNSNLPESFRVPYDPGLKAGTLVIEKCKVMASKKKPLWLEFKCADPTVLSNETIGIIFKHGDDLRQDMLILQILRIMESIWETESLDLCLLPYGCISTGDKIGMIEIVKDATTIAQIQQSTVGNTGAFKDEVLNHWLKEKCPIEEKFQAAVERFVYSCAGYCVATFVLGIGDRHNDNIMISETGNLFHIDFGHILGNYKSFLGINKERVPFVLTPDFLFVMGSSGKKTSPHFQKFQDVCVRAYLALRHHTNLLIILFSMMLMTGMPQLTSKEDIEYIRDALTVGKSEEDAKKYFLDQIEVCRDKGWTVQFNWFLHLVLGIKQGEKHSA

IC50 (PI3K α) [µM] | IC50 (PI3K γ) [µM] | PI3K δ/PI3K γ IC50 (selectivity) (PI3K γ) | IC50 (p110 γ) [µM] | RAJI δ/Raw264.7 γ IC50 (selectivity) (p110 γ) | IC50 (PI3K β) [µM] | IC50 (p110 δ) [µM] | IC50 (PI3K δ) [µM] | SMILES
5 to 10 | 1 to 5 | W (W = >1 to <10) | 0.05 to 0.1 | X (X = 10 to <50) | 5 to 10 | 1 to 10 | 5 to 10 | CC(NC(=O)c1c(N)nn2cccnc12)c1oc2cccc(C#Cc3cnn(C)c3)c2c(=O)c1-c1ccccc1 (centres unmarked) [Compound 103]
5 to 10 | > 5 | V (V = 0.1 to 1) | 0.1 to 10 | X (X = 10 to <50) | 5 to 10 | 1 to 10 | 5 to 10 | C[C@@H](NC(=O)c1c(N)nn2cccnc12)c1oc2cccc(C#Cc3cnn(C)c3)c2c(=O)c1-c1ccccc1 [Compound 103R]
5 to 10 | 0.1 to 0.5 | X (X = 10 to <50) | 0.001 to 0.05 | Y (Y = 50 to <850) | 5 to 10 | 1 to 10 | 5 to 10 | C[C@H](NC(=O)c1c(N)nn2cccnc12)c1oc2cccc(C#Cc3cnn(C)c3)c2c(=O)c1-c1ccccc1 [Compound 103S]
5 to 10 | > 5 | V (V = 0.1 to 1) | 0.1 to 10 | Y (Y = 50 to <850) | 5 to 10 | 1 to 10 | 5 to 10 | C[C@H](NC(=O)c1c(N)nn2cccnc12)c1nc2cccc(C#Cc3cnn(C)c3)c2cc1-c1ccccc1 [Compound 181S]

Second part, the compound before the results:

SMILES | IC50 (PI3K α) [µM] | IC50 (PI3K γ) [µM] | PI3K δ/PI3K γ IC50 (selectivity) (PI3K γ) | IC50 (p110 γ) [µM] | RAJI δ/Raw264.7 γ IC50 (selectivity) (p110 γ) | IC50 (PI3K β) [µM] | IC50 (p110 δ) [µM] | IC50 (PI3K δ) [µM]
C[C@@H](NC(=O)c1c(N)nn2cccnc12)c1nc2cccc(C#Cc3cnn(C)c3)c2cc1-c1ccccc1 [Compound 181R] | 5 to 10 | > 5 | V (V = 0.1 to 1) | 0.1 to 10 | V (V = 0.1 to 1) | 5 to 10 | 1 to 10 | 5 to 10
C[C@@H](NC(=O)c1c(N)nn2cccnc12)c1cc2cccc(C#Cc3cnn(C)c3)c2nc1-c1ccccc1 [Compound 175R] | 5 to 10 | > 5 | V (V = 0.1 to 1) | – | – | 5 to 10 | – | 5 to 10
C[C@H](NC(=O)c1c(N)nn2cccnc12)c1cc2cccc(C#Cc3cnn(C)c3)c2nc1-c1ccccc1 [Compound 175S] | 5 to 10 | 0.1 to 0.5 | X (X = 10 to <50) | 0.001 to 0.05 | W (W = >1 to <10) | 5 to 10 | 0.1 to 0.5 | 5 to 10
